# Where two headings read alike, the source gives them in different places.
# Experiments:
# Format in all cases: physicochemical
# [1] = DVS water sorption isotherm, 25° C. scanned over 0 to 95% relative humidity (hygroscopicity)
# Source text: In various embodiments, the hygroscopicity of crystal forms of racemic amisulpride, enantiomeric amisulpride, and enantiomeric amisulpride solvates are characterized by dynamic vapor sorption (DVS). DVS is a gravimetric technique that measures how much of a solvent is absorbed by a sample by varying the vapor concentration surrounding the sample (e.g., relative humidity) and measuring the change in mass. In the present application, DVS is used to generate water sorption isotherms, which represent the equilibrium amount of vapor sorbed as a function of steady state relative vapor pressure at a constant temperature.
# [2] = Solid form stability on storage at 25° C. and 60% relative humidity; settings: after 4 months at 25° C. and 60% relative humidity (RH)
# [3] = Solubility (mg/mL) in water, buffers, simulated fluids and organic solvents (Table 1)
# [4] = DVS, 25° C., 0 to 95% relative humidity
smiles,measurement,setting,value
"CCN1CCC[C@@H]1CNC(=O)c1cc(S(=O)(=O)CC)c(N)cc1OC [(R)-amisulpride Form A, R-4-Amino-N-[(1-ethyl-2-pyrrolidinyl)methyl]-5-(ethylsulfonyl)-2-methoxybenzamide]",hygroscopicity,[1]; [4],"substantially non-hygroscopic (less than a 1% maximum mass change in water sorption isotherms, at 25 °C scanned over 0 to 95% relative humidity)"
same,maximum mass change in water sorption isotherms,[1]; [4],0.183%
same,average maximum mass change,"[1]; DVS, average over the samples of Tables 6A-6C (Form A′) or 6D-6E (Form A)",about 0.17%
same,Change Mass,"[1]; FIG. 2D, RH 1.28 %, elapse time 173.0 min",0.000 wt %
same,Change Mass,"[1]; FIG. 2D, RH 5.03 %, elapse time 515.4 min",0.004 wt %
same,Change Mass,"[1]; FIG. 2D, RH 5.05 %, elapse time 854.6 min",0.008 wt %
same,Change Mass,"[1]; FIG. 2D, RH 5.19 %, elapse time 181.6 min",0.004 wt %
same,Change Mass,"[1]; FIG. 2D, RH 9.87 %, elapse time 523.4 min",0.008 wt %
same,Change Mass,"[1]; FIG. 2D, RH 10.07 %, elapse time 189.1 min",0.010 wt %
same,Change Mass,"[1]; FIG. 2D, RH 10.08 %, elapse time 507.4 min",0.010 wt %
same,Change Mass,"[1]; FIG. 2D, RH 10.10 %, elapse time 846.6 min",0.014 wt %
same,Change Mass,"[1]; FIG. 2D, RH 14.89 %, elapse time 531.4 min",0.014 wt %
same,Change Mass,"[1]; FIG. 2D, RH 14.91 %, elapse time 196.6 min",0.017 wt %
same,Change Mass,"[1]; FIG. 2D, RH 15.10 %, elapse time 499.4 min",0.017 wt %
same,Change Mass,"[1]; FIG. 2D, RH 15.15 %, elapse time 838.6 min",0.021 wt %
same,Change Mass,"[1]; FIG. 2D, RH 19.83 %, elapse time 204.6 min",0.024 wt %
same,Change Mass,"[1]; FIG. 2D, RH 19.90 %, elapse time 539.4 min",0.020 wt %
same,Change Mass,"[1]; FIG. 2D, RH 20.10 %, elapse time 491.4 min",0.023 wt %
same,Change Mass,"[1]; FIG. 2D, RH 20.13 %, elapse time 830.5 min",0.028 wt %
same,Change Mass,"[1]; FIG. 2D, RH 24.87 %, elapse time 548.4 min",0.027 wt %
same,Change Mass,"[1]; FIG. 2D, RH 24.89 %, elapse time 483.4 min",0.029 wt %
same,Change Mass,"[1]; FIG. 2D, RH 24.93 %, elapse time 822.5 min",0.033 wt %
same,Change Mass,"[1]; FIG. 2D, RH 24.98 %, elapse time 213.7 min",0.031 wt %
same,Change Mass,"[1]; FIG. 2D, RH 29.88 %, elapse time 222.7 min",0.039 wt %
same,Change Mass,"[1]; FIG. 2D, RH 29.89 %, elapse time 557.4 min",0.034 wt %
same,Change Mass,"[1]; FIG. 2D, RH 30.13 %, elapse time 475.9 min",0.036 wt %
same,Change Mass,"[1]; FIG. 2D, RH 30.15 %, elapse time 815.0 min",0.040 wt %
same,Change Mass,"[1]; FIG. 2D, RH 34.83 %, elapse time 566.4 min",0.042 wt %
same,Change Mass,"[1]; FIG. 2D, RH 34.93 %, elapse time 467.4 min",0.043 wt %
same,Change Mass,"[1]; FIG. 2D, RH 34.94 %, elapse time 806.5 min",0.046 wt %
same,Change Mass,"[1]; FIG. 2D, RH 34.97 %, elapse time 231.7 min",0.046 wt %
same,Change Mass,"[1]; FIG. 2D, RH 39.80 %, elapse time 240.7 min",0.054 wt %
same,Change Mass,"[1]; FIG. 2D, RH 39.88 %, elapse time 457.4 min",0.050 wt %
same,Change Mass,"[1]; FIG. 2D, RH 39.95 %, elapse time 796.5 min",0.053 wt %
same,Change Mass,"[1]; FIG. 2D, RH 39.99 %, elapse time 577.4 min",0.049 wt %
same,Change Mass,"[1]; FIG. 2D, RH 44.82 %, elapse time 249.7 min",0.061 wt %
same,Change Mass,"[1]; FIG. 2D, RH 44.93 %, elapse time 586.4 min",0.056 wt %
same,Change Mass,"[1]; FIG. 2D, RH 45.05 %, elapse time 786.5 min",0.060 wt %
same,Change Mass,"[1]; FIG. 2D, RH 45.17 %, elapse time 447.9 min",0.058 wt %
same,Change Mass,"[1]; FIG. 2D, RH 49.96 %, elapse time 597.5 min",0.063 wt %
same,Change Mass,"[1]; FIG. 2D, RH 49.98 %, elapse time 258.7 min",0.068 wt %
same,Change Mass,"[1]; FIG. 2D, RH 50.04 %, elapse time 775.5 min",0.067 wt %
same,Change Mass,"[1]; FIG. 2D, RH 50.07 %, elapse time 438.8 min",0.065 wt %
same,Change Mass,"[1]; FIG. 2D, RH 54.98 %, elapse time 606.5 min",0.070 wt %
same,Change Mass,"[1]; FIG. 2D, RH 55.01 %, elapse time 269.7 min",0.076 wt %
same,Change Mass,"[1]; FIG. 2D, RH 55.07 %, elapse time 427.8 min",0.073 wt %
same,Change Mass,"[1]; FIG. 2D, RH 55.14 %, elapse time 764.5 min",0.074 wt %
same,Change Mass,"[1]; FIG. 2D, RH 59.95 %, elapse time 278.7 min",0.084 wt %
same,Change Mass,"[1]; FIG. 2D, RH 59.95 %, elapse time 617.5 min",0.078 wt %
same,Change Mass,"[1]; FIG. 2D, RH 60.08 %, elapse time 416.8 min",0.081 wt %
same,Change Mass,"[1]; FIG. 2D, RH 60.16 %, elapse time 753.5 min",0.082 wt %
same,Change Mass,"[1]; FIG. 2D, RH 64.91 %, elapse time 628.5 min",0.086 wt %
same,Change Mass,"[1]; FIG. 2D, RH 64.92 %, elapse time 289.7 min",0.091 wt %
same,Change Mass,"[1]; FIG. 2D, RH 65.11 %, elapse time 742.5 min",0.090 wt %
same,Change Mass,"[1]; FIG. 2D, RH 65.16 %, elapse time 405.8 min",0.090 wt %
same,Change Mass,"[1]; FIG. 2D, RH 69.88 %, elapse time 300.7 min",0.099 wt %
same,Change Mass,"[1]; FIG. 2D, RH 69.98 %, elapse time 639.5 min",0.094 wt %
same,Change Mass,"[1]; FIG. 2D, RH 70.09 %, elapse time 394.8 min",0.099 wt %
same,Change Mass,"[1]; FIG. 2D, RH 70.18 %, elapse time 731.5 min",0.098 wt %
same,Change Mass,"[1]; FIG. 2D, RH 74.63 %, elapse time 648.5 min",0.103 wt %
same,Change Mass,"[1]; FIG. 2D, RH 74.64 %, elapse time 309.7 min",0.108 wt %
same,Change Mass,"[1]; FIG. 2D, RH 75.39 %, elapse time 383.8 min",0.109 wt %
same,Change Mass,"[1]; FIG. 2D, RH 75.48 %, elapse time 720.5 min",0.109 wt %
same,Change Mass,"[1]; FIG. 2D, RH 79.56 %, elapse time 318.7 min",0.119 wt %
same,Change Mass,"[1]; FIG. 2D, RH 79.66 %, elapse time 657.5 min",0.113 wt %
same,Change Mass,"[1]; FIG. 2D, RH 80.45 %, elapse time 374.8 min",0.124 wt %
same,Change Mass,"[1]; FIG. 2D, RH 80.45 %, elapse time 711.5 min",0.123 wt %
same,Change Mass,"[1]; FIG. 2D, RH 84.45 %, elapse time 666.5 min",0.128 wt %
same,Change Mass,"[1]; FIG. 2D, RH 84.52 %, elapse time 327.8 min",0.134 wt %
same,Change Mass,"[1]; FIG. 2D, RH 85.43 %, elapse time 702.5 min",0.152 wt %
same,Change Mass,"[1]; FIG. 2D, RH 85.47 %, elapse time 365.8 min",0.155 wt %
same,Change Mass,"[1]; FIG. 2D, RH 89.51 %, elapse time 336.8 min",0.152 wt %
same,Change Mass,"[1]; FIG. 2D, RH 89.63 %, elapse time 675.5 min",0.147 wt %
same,Change Mass,"[1]; FIG. 2D, RH 90.09 %, elapse time 356.8 min",0.168 wt %
same,Change Mass,"[1]; FIG. 2D, RH 90.20 %, elapse time 693.5 min",0.164 wt %
same,Change Mass,"[1]; FIG. 2D, RH 94.80 %, elapse time 347.8 min",0.183 wt %
same,Change Mass,"[1]; FIG. 2D, RH 94.89 %, elapse time 684.5 min",0.175 wt %
same,Change Mass,"[1]; FIG. 2E, RH 19.69 %, elapse time 383.8 min",0.012 wt %
same,Change Mass,"[1]; FIG. 2E, RH 24.95 %, elapse time 392.9 min",0.018 wt %
same,Change Mass,"[1]; FIG. 2E, RH 29.81 %, elapse time 401.9 min",0.024 wt %
same,Change Mass,"[1]; FIG. 2E, RH 34.97 %, elapse time 412.9 min",0.032 wt %
same,Change Mass,"[1]; FIG. 2E, RH 39.81 %, elapse time 421.9 min",0.038 wt %
same,Change Mass,"[1]; FIG. 2E, RH 44.97 %, elapse time 432.9 min",0.044 wt %
same,Change Mass,"[1]; FIG. 2E, RH 45.03 %, elapse time 627.0 min",0.046 wt %
same,Change Mass,"[1]; FIG. 2E, RH 49.81 %, elapse time 441.9 min",0.051 wt %
same,Change Mass,"[1]; FIG. 2E, RH 50.10 %, elapse time 618.0 min",0.052 wt %
same,Change Mass,"[1]; FIG. 2E, RH 54.81 %, elapse time 450.9 min",0.059 wt %
same,Change Mass,"[1]; FIG. 2E, RH 55.04 %, elapse time 609.0 min",0.059 wt %
same,Change Mass,"[1]; FIG. 2E, RH 59.91 %, elapse time 461.9 min",0.066 wt %
same,Change Mass,"[1]; FIG. 2E, RH 60.10 %, elapse time 598.0 min",0.067 wt %
same,Change Mass,"[1]; FIG. 2E, RH 64.88 %, elapse time 472.9 min",0.074 wt %
same,Change Mass,"[1]; FIG. 2E, RH 65.19 %, elapse time 586.9 min",0.075 wt %
same,Change Mass,"[1]; FIG. 2E, RH 69.81 %, elapse time 483.9 min",0.082 wt %
same,Change Mass,"[1]; FIG. 2E, RH 70.16 %, elapse time 575.9 min",0.083 wt %
same,Change Mass,"[1]; FIG. 2E, RH 74.59 %, elapse time 492.9 min",0.090 wt %
same,Change Mass,"[1]; FIG. 2E, RH 75.44 %, elapse time 564.9 min",0.092 wt %
same,Change Mass,"[1]; FIG. 2E, RH 79.63 %, elapse time 501.9 min",0.100 wt %
same,Change Mass,"[1]; FIG. 2E, RH 80.52 %, elapse time 555.9 min",0.105 wt %
same,Change Mass,"[1]; FIG. 2E, RH 84.55 %, elapse time 510.9 min",0.112 wt %
same,Change Mass,"[1]; FIG. 2E, RH 85.39 %, elapse time 546.9 min",0.126 wt %
same,Change Mass,"[1]; FIG. 2E, RH 89.85 %, elapse time 519.9 min",0.127 wt %
same,Change Mass,"[1]; FIG. 2E, RH 90.10 %, elapse time 537.9 min",0.137 wt %
same,Change Mass,"[1]; FIG. 2E, RH 94.52 %, elapse time 528.9 min",0.149 wt %
same,thermodynamic stability of crystal form (conversion to other polymorphs or amorphous form),[2],not substantially converting to other polymorphs or amorphous form
same,solubility,"[3]; aqueous buffer, 0.05M Acetate Buffer, solution pH 4.5, read-out: Solubility (mg/mL): 0.05M Acetate Buffer",> 100 mg/mL
same,solubility,"[3]; pH 1.1, Simulated Gastric Fluid (no enzyme), pH adjusted to 1.1 (Form A), 1.2 (Form A′), read-out: Solubility (mg/mL): Simulated Gastric Fluid (no enzyme)",> 100 mg/mL
same,solubility,"[3]; pH 6.7, fassgf or other biorelevant, Simulated Intestinal Fluid (no enzyme), pH adjusted to 6.7 (Form A), 6.9 (Form A′), read-out: Solubility (mg/mL): Simulated Intestinal Fluid (no enzyme)",> 100 mg/mL

# From US10577317B2, “Crystal forms and production methods thereof” (Sunovion Pharmaceuticals Inc., priority 2017, dated 2020)
